Activity calls are given as the source filed them. The rule behind the calls is not given here.
Assays:
Prostaglandin E synthase = target: T1, Prostaglandin E synthase (Homo sapiens, UniProt O14684); test: Inhibition of mPGES1 in IL-1beta-stimulated human A549 cell microsomes using PGH2 as substrate assessed as reduction in PGE2 production preincubated for 15 mins followed by substrate addition and measured after 1 min by RP-HPLC analysis
T1 sequence (O14684 whole entry): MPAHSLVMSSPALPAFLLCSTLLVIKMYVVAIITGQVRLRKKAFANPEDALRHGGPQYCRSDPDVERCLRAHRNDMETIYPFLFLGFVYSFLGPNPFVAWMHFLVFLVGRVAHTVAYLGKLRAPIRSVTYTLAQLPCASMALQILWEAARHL

[1] = target: T2, Prostaglandin E synthase (Homo sapiens) (UniProt O14684); test: Inhibition of mPGES1 in IL-1beta-stimulated human A549 cell microsomes assessed as remaining activity at 10 uM using PGH2 as substrate by measuring reduction in PGE2 production preincubated for 15 mins followed by substrate addition and measured after 1 min by RP-HPLC analysis
T2 sequence (whole entry): T1 sequence (O14684 whole entry)

[2] = target: T3, Prostaglandin G/H synthase 2 (Homo sapiens) (UniProt P35354); test: Inhibition of recombinant human COX2 at 10 uM using arachidonic acid as substrate preincubated for 5 mins followed by substrate addition and measured after 5 mins by UPLC-MS/MS analysis
T3 sequence (whole entry): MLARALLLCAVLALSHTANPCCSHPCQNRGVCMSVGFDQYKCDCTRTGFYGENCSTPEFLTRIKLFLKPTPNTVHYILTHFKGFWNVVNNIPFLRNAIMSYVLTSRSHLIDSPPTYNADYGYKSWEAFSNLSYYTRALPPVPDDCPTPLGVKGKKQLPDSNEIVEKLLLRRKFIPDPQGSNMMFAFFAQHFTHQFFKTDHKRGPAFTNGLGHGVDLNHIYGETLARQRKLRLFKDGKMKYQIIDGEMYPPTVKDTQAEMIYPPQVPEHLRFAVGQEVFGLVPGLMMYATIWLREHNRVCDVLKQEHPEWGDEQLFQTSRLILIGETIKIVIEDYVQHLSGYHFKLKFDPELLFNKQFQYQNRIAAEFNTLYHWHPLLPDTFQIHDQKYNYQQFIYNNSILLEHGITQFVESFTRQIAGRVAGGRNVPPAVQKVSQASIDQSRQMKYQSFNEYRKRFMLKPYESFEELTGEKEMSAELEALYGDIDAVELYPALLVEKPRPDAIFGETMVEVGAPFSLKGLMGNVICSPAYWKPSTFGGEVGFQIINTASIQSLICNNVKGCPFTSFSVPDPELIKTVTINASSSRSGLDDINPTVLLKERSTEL

[3] = target: T4, Prostaglandin G/H synthase 1 (Ovis aries) (UniProt P05979); test: Inhibition of ovine COX1 at 10 uM using arachidonic acid as substrate preincubated for 5 mins followed by substrate addition and measured after 5 mins by UPLC-MS/MS analysis
T4 sequence (whole entry): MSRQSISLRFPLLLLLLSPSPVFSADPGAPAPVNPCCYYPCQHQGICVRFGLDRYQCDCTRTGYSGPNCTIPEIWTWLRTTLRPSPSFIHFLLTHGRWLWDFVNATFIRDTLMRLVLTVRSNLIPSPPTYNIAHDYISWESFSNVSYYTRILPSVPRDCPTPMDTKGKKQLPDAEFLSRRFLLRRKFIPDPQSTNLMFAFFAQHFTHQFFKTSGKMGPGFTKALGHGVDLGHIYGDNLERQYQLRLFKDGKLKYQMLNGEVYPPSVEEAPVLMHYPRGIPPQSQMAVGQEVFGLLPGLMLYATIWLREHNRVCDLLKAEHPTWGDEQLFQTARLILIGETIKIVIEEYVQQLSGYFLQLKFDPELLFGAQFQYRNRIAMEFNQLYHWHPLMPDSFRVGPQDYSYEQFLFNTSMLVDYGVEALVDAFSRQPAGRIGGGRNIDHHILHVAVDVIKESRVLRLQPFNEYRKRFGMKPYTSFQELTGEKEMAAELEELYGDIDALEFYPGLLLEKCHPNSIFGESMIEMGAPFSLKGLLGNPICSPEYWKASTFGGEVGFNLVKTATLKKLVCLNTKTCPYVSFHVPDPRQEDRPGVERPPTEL

[4] = target: T5, Prostaglandin G/H synthase 1 (Ovis aries, UniProt P05979); test: Inhibition of ovine COX1 using arachidonic acid as substrate preincubated for 5 mins followed by substrate addition and measured after 5 mins by UPLC-MS/MS analysis
T5 sequence (P05979 whole entry): T4 sequence (whole entry)

Row | SMILES | IC50 (Prostaglandin E synthase) [nM] | Activity [1] | inhibition [2] | inhibition [3] | IC50 [4] [µM]
1 | COCCc1ccc(OCc2ccc(-c3cc(F)c([N+](=O)[O-])cc3[N+](=O)[O-])cc2)cc1 | 1640 | 11.8% | inactive | inactive | –
2 | O=[N+]([O-])c1cc([N+](=O)[O-])c(-c2ccc(COc3cccc(C(F)(F)F)c3)cc2)cc1F | 260 | 12.1% | inactive | inactive | –
3 | O=[N+]([O-])c1cc([N+](=O)[O-])c(-c2ccc(COc3ccccc3)cc2)cc1F | 600 | 9.5% | inactive | inactive | –
4 | O=[N+]([O-])c1cc([N+](=O)[O-])c(-c2ccccc2COc2cccc(C(F)(F)F)c2)cc1F | 540 | 7% | inactive | Active | 3
5 | O=[N+]([O-])c1cc([N+](=O)[O-])c(-c2ccc(COc3cccc4ccccc34)cc2)cc1F | 180 | 9.1% | inactive | inactive | –

The next lines start with results.

Row | IC50 (Prostaglandin E synthase) [nM] | Activity [1] | SMILES | inhibition [2] | inhibition [3] | IC50 [4] [µM]
6 | > 10000 | inactive | O=[N+]([O-])c1cc(C(F)(F)F)ccc1-c1ccc(COc2cccc(C(F)(F)F)c2)cc1 | – | – | –
7 | > 10000 | inactive | O=[N+]([O-])c1cc(C(F)(F)F)ccc1-c1ccc(COc2ccccc2)cc1 | – | – | –
8 | > 10000 | inactive | COCCc1ccc(OCc2ccc(-c3ccc(C(F)(F)F)cc3[N+](=O)[O-])cc2)cc1 | – | – | –
9 | > 10000 | inactive | O=[N+]([O-])c1cc(C(F)(F)F)ccc1-c1ccc(COc2cccc3ccccc23)cc1 | – | – | –
10 | > 10000 | inactive | O=[N+]([O-])c1cc(C(F)(F)F)ccc1-c1ccccc1COc1cccc(C(F)(F)F)c1 | – | – | –

From ChEMBL document CHEMBL4251562, “Discovery of new potent molecular entities able to inhibit mPGES-1” (Eur J Med Chem, 2018)
